Results published in BindingDB's records for PubMed 37302340 (Chengdu University of Traditional Chinese Medicine).

Target: 5'-nucleotidase CD73 (Homo sapiens) (UniProt P21589)
Assay: Binding affinity to human recombinant CD73 expressed in Sf9 cells assessed as inhibition constant by malachite green based spectrophotometer assay

5'-nucleotidase CD73 (Homo sapiens), sequence (P21589 whole entry, looked up): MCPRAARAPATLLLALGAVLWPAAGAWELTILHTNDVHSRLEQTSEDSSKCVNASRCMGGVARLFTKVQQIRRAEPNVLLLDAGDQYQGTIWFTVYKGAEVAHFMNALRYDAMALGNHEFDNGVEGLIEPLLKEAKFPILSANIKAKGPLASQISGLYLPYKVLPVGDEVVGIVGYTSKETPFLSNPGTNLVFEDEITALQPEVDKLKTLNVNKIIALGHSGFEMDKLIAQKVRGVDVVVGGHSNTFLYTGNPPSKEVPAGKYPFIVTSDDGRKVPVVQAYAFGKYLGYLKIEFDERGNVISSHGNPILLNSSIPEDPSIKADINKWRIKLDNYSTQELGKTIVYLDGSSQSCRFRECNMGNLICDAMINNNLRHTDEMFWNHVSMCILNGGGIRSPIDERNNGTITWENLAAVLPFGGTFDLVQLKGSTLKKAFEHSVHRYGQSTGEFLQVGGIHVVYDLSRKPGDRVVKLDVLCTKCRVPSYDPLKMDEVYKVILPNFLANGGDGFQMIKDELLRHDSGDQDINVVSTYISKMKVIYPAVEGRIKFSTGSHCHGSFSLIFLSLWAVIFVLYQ

Ki: 97 nM
SMILES: CCN(CC)c1nc(Cl)nc2c1ncn2[C@@H]1O[C@H](COCP(=O)(O)OP(=O)(O)C(Br)(Br)P(=O)(O)O)[C@@H](O)[C@H]1O
